Molecular target: T1, ACC1 (Homo sapiens, UniProt Q13085)
T1 construct: purchased BPS bioscience
Experiment: In vitro inhibition of ACC1 activity, ADP-Glo Kinase Analysis
Assay type: biochemical
Conditions: 1 nM ACC1, 10 μM acetyl-CoA, 20 μM ATP
Text: ADP-Glo™ Kinase Analysis Kit (Promega) is used for the in vitro analysis of the inhibitory effect of the present compound on ACC1 or ACC2. ADP-Glo™ Kinase Analysis is a kinase detection analysis of luminescence method. ADP is produced in the process of catalyzing the substrate by ACC. ADP is converted into ATP which is then converted into light by Ultra-Glo™ luciferase. ADP is quantified by detecting the light signal, thus the enzyme activity can be measured by quantification of the ADP amount produced during the enzyme reaction. The analysis is carried out in two steps: in the first step, after the kinase reaction, a portion of ADP-Glo™ reagent equal in volume to the kinase reaction system is added to terminate the reaction and consume the remaining ATP; in the second step, a kinase detection reagent is added, which not only converts ADP into ATP, but also uses a coupled luciferase/luciferin reaction to detect newly synthesized ATP.
a. 10 mM compound stock solution (the present compound was dissolved in 100% DMSO to prepare the 10 mM stock solution) was diluted 50-fold to 200 μM with 100% DMSO, and then diluted in equal proportions (1:3) in a 96-well dilution plate (249944, Nunc). The gradient concentrations of the compound were 200 μM, 66.67 μM, 22.22 μM, 7.41 μM, 2.47 μM, 0.823 μM, 0.274 μM, 0.0914 μM, 0.0305 μM, 0.0102 μM, 0.00339 μM and 0.00113 μM.
b. 4.5 μL ACC1 working solution (BPS bioscience) (2.22 nM) was added to each well of a 384-well test plate (6007290, Perkin Elmer).
c. 0.5 μL of the serially diluted compound (prepared in step a) was added to each well of the 384-well test plate, which was centrifuged at 1000 rpm for 1 min and then incubated at room temperature for 15 min. The reaction system with compound GS-0976 at a final concentration of 0.1 μM was used as positive control; the reaction system with no compound but DMSO at a final concentration of 5% was used as negative control.
d. In the 384-well test plate (prepared in step c), 5 μL of the substrate working solution was added to each well to start the enzymatic reaction. The plate was centrifuged at 1000 rpm for 1 min and then incubated at room temperature for 30 min. The final concentration of each component in the ACC1 reaction system: 1 nM ACC1, 10 μM acetyl-CoA, 30 mM NaHCO3, and 20 μM ATP. The final concentration of each component in the ACC2 reaction system: 1.1 nM ACC2, 20 μM acetyl-CoA, 20 mM NaHCO3, and 15 μM ATP. Final concentrations of test compounds: 10 μM, 3.33 μM, 1.11 μM, 0.37 μM, 0.123 μM, 0.0411 μM, 0.0137 μM, 0.00457 μM, 0.00152 μM, 0.00051 μM, 0.00017 μM and 0.000056 μM. The final concentration of DMSO was 5% (v/v).
e. 10 μL of ADP-Glo reagent was added to each well of the 384-well test plate (prepared in step d), which was centrifuged at 1000 rpm for 1 min and then incubated at room temperature for 40 min.
f. 20 μL of kinase detection reagent was added to each well of the 384-well test plate (prepared in step e), which was centrifuged at 1000 rpm for 1 min and then incubated at room temperature for 40 min.
g. The chemiluminescence signal was detected with Perkin Elmer EnVision 2104.
ACC1 working solution and substrate working solution were both prepared with 1× kinase reaction buffer. The buffer was consisting of 50 mM HEPES buffer, 2 mM magnesium chloride, 0.01% BRIJ-35, 2 mM potassium citrate, 50 μg/mL BSA and 2 mM DTT.
The average value of the positive and negative control well and the standard deviation were calculated. The inhibition percentage was calculated according to the following formula: 100×[1−(compound−average value of positive control)/(average value of negative control-average value of positive control)].
IC50 of the compound was obtained using GraphPad Prism 6 software according to the following nonlinear fitting formula:
Y=Bottom+(Top−Bottom)/(1+10^((Log IC50−X)×Hillslope)), […]

| Structure (SMILES) | IC50 |
| --- | --- |
| COc1ccccc1[C@H](CN1c2sc(-c3ncco3)c(C)c2C(=O)[C@]2(C[C@H](C(=O)NC(C)(C)C(=O)O)C2)C1=O)OC1CCOCC1 [Compound 11, 2-((1s,3S)-7′-((R)-2-(2-methoxyphenyl)-2-((tetrahydro-2H-pyran-4-yl)oxy)ethyl)-3′-methyl-2′-(oxazol-2-yl)-4′,6′-dioxo-6′,7′-dihydro-4′H-spiro[cyclobutane-1,5′-thieno[2,3-b]pyridine]-3-carboxyamido)-2-methylpropionic Acid] | < 10 nM |
| COc1ccccc1[C@H](CN1c2sc(-c3ncco3)c(C)c2C(=O)[C@]2(C[C@H](C(=O)N(C)C)C2)C1=O)OC1CCOCC1 [Compound 12] | < 10 nM |
| COc1ccccc1[C@H](CN1c2sc(-c3ncco3)c(C)c2C(=O)[C@]2(C[C@H](C(=O)N[C@@H](C)C(=O)O)C2)C1=O)OC1CCOCC1 [Compound 13] | < 10 nM |
| COc1ccccc1[C@H](CN1c2sc(-c3ncco3)c(C)c2C(=O)[C@]2(C[C@H](C(=O)N[C@H](C)C(=O)O)C2)C1=O)OC1CCOCC1 [Compound 14, ((1S,3S)-7′-((R)-2-(2-methoxyphenyl)-2-((tetrahydro-2H-pyran-4-yl)oxy)ethyl)-3′-methyl-2′-(oxazol-2-yl)-4′,6′-dioxo-6′,7′-dihydro-4′H-spiro[cyclobutane-1,5′-thieno[2,3-b]pyridine]-3-carbonyl)-D-alanine] | < 10 nM |
| COC(=O)[C@@H](C)NC(=O)[C@H]1C[C@@]2(C1)C(=O)c1c(sc(-c3ncco3)c1C)N(C[C@H](OC1CCOCC1)c1ccccc1OC)C2=O [Compound 14-1, Methyl ((1S,3S)-7′-((R)-2-(2-methoxyphenyl)-2-((tetrahydro-2H-pyran-4-yl)oxy)ethyl)-3′-methyl-2′-(oxazol-2-yl)-4′,6′-dioxo-6′,7′-dihydro-4′H-spiro[cyclobutane-1,5′-thieno[2,3-b]pyridine]-3-carbonyl)-D-alaninate] | < 10 nM |
| COc1ccccc1[C@H](CN1c2sc(-c3ncco3)c(C)c2C(=O)[C@]2(C[C@H](C(=O)N(C)CC(=O)O)C2)C1=O)OC1CCOCC1 [Compound 15, N-((1s,3S)-7′-((R)-2-(2-methoxyphenyl)-2-((tetrahydro-2H-pyran-4-yl)oxy)ethyl)-3′-methyl-2′-(oxazol-2-yl)-4′,6′-dioxo-6′,7′-dihydro-4′H-spiro[cyclobutane-1,5′-thieno[2,3-b]pyridine]-3-carbonyl)-N-methylglycine] | < 10 nM |
| COC(=O)CN(C)C(=O)[C@H]1C[C@@]2(C1)C(=O)c1c(sc(-c3ncco3)c1C)N(C[C@H](OC1CCOCC1)c1ccccc1OC)C2=O [Compound 15-1, Methyl N-((1s,3S)-7′-((R)-2-(2-methoxyphenyl)-2-((tetrahydro-2H-pyran-4-yl)oxy)ethyl)-3′-methyl-2′-(oxazol-2-yl)-4′,6′-dioxo-6′,7′-dihydro-4′H-spiro[cyclobutane-1,5′-thieno[2,3-b]pyridine]-3-carbonyl)-N-methylglycinate] | < 10 nM |
| COc1ccccc1[C@H](CN1c2sc(-c3ncco3)c(C)c2C(=O)[C@]2(C[C@H](C(=O)OCC(=O)O)C2)C1=O)OC1CCOCC1 [Compound 16, 2-(((1s,3S)-7′-((R)-2-(2-methoxyphenyl)-2-((tetrahydro-2H-pyran-4-yl)oxy)ethyl)-3′-methyl-2′-(oxazol-2-yl)-4′,6′-dioxo-6′,7′-dihydro-4′H-spiro[cyclobutane-1,5′-thieno[2,3-b]pyridine]-3-carbonyl)oxy)acetic Acid] | < 10 nM |
| COc1ccccc1[C@H](CN1c2sc(-c3ncco3)c(C)c2C(=O)[C@]2(C[C@H](C(N)=O)C2)C1=O)OC1CCOCC1 [Compound 17] | < 10 nM |
| COc1ccccc1[C@H](CN1c2sc(-c3ncco3)c(C)c2C(=O)[C@]2(C[C@H](C(=O)NCCO)C2)C1=O)OC1CCOCC1 [Compound 18, (1s,3S)-N-(2-hydroxyethyl)-7′-((R)-2-(2-methoxyphenyl)-2-((tetrahydro-2H-pyran-4-yl)oxy)ethyl)-3′-methyl-2′-(oxazol-2-yl)-4′,6′-dioxo-6′,7′-dihydro-4′H-spiro[cyclobutane-1,5′-thieno[2,3-b]pyridine]-3-carboxamide] | < 10 nM |
| COc1ccccc1[C@H](CN1C(=O)C2(CCN(C(=O)OC(C)(C)C)CC2)C(=O)c2c1sc(-c1ncco1)c2C)OC1CCOCC1 [Compound 20, tert-butyl (R)-7′-(2-(2-methoxyphenyl)-2-((tetrahydro-2H-pyran-4-yl)oxy)ethyl)-3′-methyl-2′-(oxazol-2-yl)-4′,6′-dione-6′,7′-dihydro-4′H-spiro[piperidine-4,5′-thieno[2,3-d]pyridine]-1-carboxylate] | 10 to 100 nM |
| COc1ccccc1[C@H](CN1C(=O)C2(CCNCC2)C(=O)c2c1sc(-c1ncco1)c2C)OC1CCOCC1 [Compound 21, (R)-7′-(2-(2-methoxyphenyl)-2-((tetrahydro-2H-pyran-4-yl)oxy)ethyl)-3′-methyl-2′-(oxazol-2-yl)-4′H-spiro[piperidine-4,5′-thieno[2,3-d]pyridine]-4′,6′(7′H)-dione] | < 10 nM |
| COC(=O)CN1CCC2(CC1)C(=O)c1c(sc(-c3ncco3)c1C)N(C[C@H](OC1CCOCC1)c1ccccc1OC)C2=O [Compound 22, methyl (R)-2-(7′-(2-(2-methoxyphenyl)-2-((tetrahydro-2H-pyran-4-yl)oxy)ethyl)-3′-methyl-2′-(oxazol-2-yl)-4′,6′-dioxo-6′,7′-dihydro-4′H-spiro[piperidine-4,5′-thieno[2,3-d]pyridine]-1-yl)carboxylate] | 10 to 100 nM |
| COc1ccccc1[C@H](CN1C(=O)C2(CCN(CC(=O)O)CC2)C(=O)c2c1sc(-c1ncco1)c2C)OC1CCOCC1 [Compound 23, (R)-2-(7′-(2-(2-methoxyphenyl)-2-((tetrahydro-2H-pyran-4-yl)oxy)ethyl)-3′-methyl-2′-(oxazol-2-yl)-4′,6′-dioxo-6′,7′-dihydro-4′H-spiro[piperidine-4,5′-thieno[2,3-d]pyridin]-1-yl)acetic Acid] | < 10 nM |
| COc1ccccc1[C@H](CN1C(=O)C2(CCN(C(C)(C)C(=O)O)CC2)C(=O)c2c1sc(-c1ncco1)c2C)OC1CCOCC1 [Compound 25, (R)-2-(7′-(2-(2-methoxyphenyl)-2-((tetrahydro-2H-pyran-4-yl)oxy)ethyl)-3′-methyl-2′-(oxazol-2-yl)-4′,6′-dioxo-6′,7′-dihydro-4′H-spiro[piperidine-4,5′-thieno[2,3-d]pyridin]-1-yl)-2-methylpropionic Acid] | 10 to 100 nM |
| COC(=O)C(C)(C)N1CCC2(CC1)C(=O)c1c(sc(-c3ncco3)c1C)N(C[C@H](OC1CCOCC1)c1ccccc1OC)C2=O [Compound 25-1, methyl (R)-2-(7′-(2-(2-methoxyphenyl)-2-((tetrahydro-2H-pyran-4-yl)oxy)ethyl)-3′-methyl-2′-(oxazol-2-yl)-4′,6′-dioxo-6′,7′-dihydro-4′H-spiro[piperidine-4,5′-thieno[2,3-d]pyridin]-1-yl)-2-methylpropanoate] | 10 to 100 nM |
| COC(=O)C(=O)N1CCC2(CC1)C(=O)c1c(sc(-c3ncco3)c1C)N(C[C@H](OC1CCOCC1)c1ccccc1OC)C2=O [Compound 26, methyl (R)-2-(7′-(2-(2-methoxyphenyl)-2-((tetrahydro-2H-pyran-4-yl)oxy)ethyl)-3′-methyl-2′-(oxazol-2-yl)-4′,6′-dioxo-6′,7′-dihydro-4′H-spiro[piperidine-4,5′-thieno[2,3-d]pyridin]-1-yl)-2-oxoacetate] | < 10 nM |

Reference: patent publication US20220041616A1, “SPIRO COMPOUND AND MEDICAL USES THEREOF” (The National Institutes of Pharmaceutical R&D Co., Ltd., priority 2018, published 2022)
